Measured values taken from patent publication US7604975B2, “Glycosylated LPXTGases and uses thereof” (priority 2002, dated 2009).
Where two headings read alike, the source gives them in different places.

Tests used:
LPXTGase [1] = assay type: biochemical, Streptococcus pyogenes; conditions: for peptide cleaved, cpm: 40 mM Tris-HCl pH 7.6, 0.1% Brij 35, control 41,530 cpm
Description: Enzyme Assay Method: Aliquots (10 μl) were removed from the column fractions and added to 1.5 ml Microfuge tubes. To each tube was added 30 μl of 40 mM Tris-HCl buffer, pH 7.6, containing 0.1% Brij 35, followed by a 10 μl suspension of bead-bound LPXTG-peptide substrate (0.5 to 0.8 μg, 100,000 to 200,000 cpm). The reaction mixture was incubated with vigorous shaking for 60 min at 37° C. After this time, 100 μl of water was added to each tube, and after vortex mixing, the mixture was centrifuged at 10,000 rpm for 5 min to pellet the beads. 100 μl of the supernatant was withdrawn and radioactivity was counted with a gamma counter.
The LPXTGase was exposed to a variety of salts and its activity tested for cleavage of the LPXTG (SEQ ID NO:1)-containing peptide.

trypsin = assay: Periodate treatment of trypsin, enzyme activity measured; assay type: biochemical; conditions: identical manner (5 mM periodate, pH 6, 4 hrs at 4° C.)
LPXTGase [2] = assay: Periodate treatment of LPXTGase, enzyme activity measured; assay type: biochemical, Streptococcus pyogenes; conditions: 5 mM periodate, 20 mM phosphate buffer pH 6, 4 hrs at 4° C.
Description: Carbohydrate composition of LPXTGase. The carbohydrate composition of purified LPXTGase was determined by the Rockefeller University Analytical Service Laboratory using a Waters 490 HPLC system. […] It seemed plausible that the charged amino acids of the enzyme are internalized and the hydrophobic amino acids are located on the exterior surface in view of the fact that the enzyme is likely to be associated with the cell membrane. […] To test this, the enzyme was incubated with 5 mM of periodate in 20 mM phosphate buffer, pH 6, for 4 hrs at 4° C., and enzyme activity was measured.

[3] = 100 mM salt, one hour at 37° C.

Q: With `[Ca+2].[Cl-].[Cl-]` [Calcium chloride] as the compound, how does the “% of control (LPXTGase activity)” value (LPXTGase [1]) read?
A: 23%

Q: And the “peptide cleaved, cpm” value (LPXTGase [1]; 20 mM salt, one hour at 37° C.)?
A: 9,706 cpm

Q: `O=C(O)CN(CCN(CC(=O)O)CC(=O)O)CC(=O)O` [EDTA] was tested. Which “% of control (LPXTGase activity)” value (LPXTGase [1]) did it give?
A: 5.2%

Q: And the “peptide cleaved, cpm” value (LPXTGase [1]; 20 mM salt, one hour at 37° C.)?
A: 2,147 cpm

Q: For `Cl.NO` [Hydroxylamine-HCl], which “% of control (LPXTGase activity)” value (LPXTGase [1]) is on record?
A: 27%

Q: And the “effect on LPXTGase activity (general statement)” value (LPXTGase [1])?
A: inhibited

Q: What about the “peptide cleaved, cpm” value (LPXTGase [1]; [3]) of the same compound?
A: 11,200 cpm

Q: What does the source list for `[Cl-].[Cl-].[Mg+2]` [Magnesium chloride]?
A: % of control (LPXTGase activity) (LPXTGase [1]): 20%; peptide cleaved, cpm (LPXTGase [1]; 20 mM salt, one hour at 37° C.): 8,615 cpm

Q: For `[Cl-].[K+]` [Potassium chloride], which “peptide cleaved, cpm” value (LPXTGase [1]; [3]) is on record?
A: 8,608 cpm

Q: And the “% of control (LPXTGase activity)” value (LPXTGase [1]; [3])?
A: 20%

Q: For `Cl.Cl.NCCCCN` [Putrescene chloride], which “peptide cleaved, cpm” value (LPXTGase [1]; 20 mM salt, one hour at 37° C.) is on record?
A: 8,710 cpm

Q: What about the “% of control (LPXTGase activity)” value (LPXTGase [1]; 20 mM salt, one hour at 37° C.) of the same compound?
A: 21%

Q: Which results are given for `[Cl-].[Na+]` [Sodium chloride]?
A: peptide cleaved, cpm (LPXTGase [1]; [3]): 6,720 cpm; % of control (LPXTGase activity) (LPXTGase [1]; [3]): 16%

Q: For `O=P(O)(O)O` [Sodium phosphate], which “% of control (LPXTGase activity)” value (LPXTGase [1]) is on record?
A: 49%

Q: What about the “peptide cleaved, cpm” value (LPXTGase [1]; 20 mM salt, one hour at 37° C.) of the same compound?
A: 20,646 cpm

Q: `O=S(=O)([O-])[O-].[Na+].[Na+]` [Sodium sulfate] was tested. Which “% of control (LPXTGase activity)” value (LPXTGase [1]) did it give?
A: 57%

Q: What about the “peptide cleaved, cpm” value (LPXTGase [1]; 20 mM salt, one hour at 37° C.) of the same compound?
A: 23,454 cpm

Q: Which “effect of periodate treatment on trypsin enzyme activity” value (trypsin) does the source give for `[O-][I+3]([O-])([O-])O` [periodate] here?
A: no effect

Q: And the “effect of periodate treatment on LPXTGase enzyme activity” value (LPXTGase [2])?
A: nearly completely abolished the enzyme activity
